The test system of this assay is rituximab CAR-T cells. Nature of the assay: Antigen-independent activation and exhaustion marker expression by flow cytometry, rituximab CAR-T cells. Particulars: for measures of antigen-independent CAR-T cell activation: FIG. 1B-D (markers, TNF-α, cell division), MYCi975 2 μM. The format is cell-based, human. The source says: FIG. 1A-G. Pharmacological inhibition of PI3K/AKT pathway modulates antigen-independent CAR-T cell activation. (A) Table of pharmacological inhibitors used during ex vivo expansion of rituximab CAR-T cells (left). Simplified schematic of the PI3K/AKT signaling axis where black arrows represent activation (right). (B) Activation marker expression by CAR^+ T cells in the absence of antigen stimulation after 5 days of pharmacological modulation. Data bars indicate the means of technical triplicates±1 S.D. The bars in FIG. 1B represent data from, untreated, vehicle, CAL-101, AZD5363, Rapamycin, MYCi975, and Betulin, respectively, from left to right. (C) TNF-α production CAR^+ T cells in the absence of antigen stimulation as quantified by intracellular flow cytometry. Data bars indicate the means of technical triplicates±1 S.D. The bars in FIG. 1B and FIG. 1C represent data from, untreated, vehicle, CAL-101, AZD5363, Rapamycin, MYCi975, and Betulin, respectively, from left to right. (D) Proliferation of CAR^+ T cells stained with CellTrace Violet (CTV) dye was assayed after a 4-day culture in the absence of target cells or exogenous cytokines. Data shown in the histogram correspond to one of technical triplicates shown in the bar graph. The bars FIG. 1D represent data from, EGFRt, untreated, vehicle, CAL-101, AZD5363, Rapamycin, MYCi975, and Betulin, respectively, from left to right. (E) % distribution of T-cell subtypes in CAR^+ T cells after 5 days of pharmacological modulation. Data bars indicate the means of technical triplicates±1 S.D. (F) Rituximab CAR-T cell fold expansion after 6 days of inhibitor culture was tracked. T-cell fold expansion was normalized to the untreated control with each data point representing biological replicates collected from healthy donors. The bars FIG. 1F represent data from, EGFRt, vehicle, CAL-101, AZD5363, Rapamycin, MYCi975, and Betulin, respectively, from left to right. (G) A 24-hr lysis assay of CD20 CAR-T cells against Raji target cells at three effector-to-target (E:T) ratios. Data bars indicate the means of technical triplicates±1 S.D. Percent lysis was normalized to cell counts in target-only wells. […] In (B)-(F), results are representative two independent experiments using cells from of two heathy donors. Statistical significance in panels B, C, and D was determined by two-tailed Student's t test with Sidak correction for multiple comparisons. * p<0.05, ** p<0.01, *** p<0.001, n.s. not statistically significant. […]
Antibody staining for flow-cytometry analysis. EGFRt expression was measured with biotinylated cetuximab (Eli Lilly; biotinylated in-house), followed by PE-conjugated streptavidin (Jackson ImmunoResearch #016-110-084). CAR expression was quantified by surface epitope staining using anti-Fc (Alexa Fluor 488, Jackson ImmunoResearch #709-546-098). Antigen-independent activation-marker expression of CAR-T cells was evaluated by antibody staining for CD137 (PE/Cy7, clone 4B4-1, BioLegend #309818), and PD-1 (FITC, clone EH12.2H7, BioLegend #329904) on Days 18 (i.e., 18 days after Dynabead addition and 11 days after Dynabead removal) and after 5-6 days of inhibitor culture (FIG. 1, FIG. 3). T-cell subtype of CAR-T cells was evaluated by antibody staining for CD45RO (VioBlue®, clone REA611, Miltenyi #130-119-620) and CD62L (APC, clone DREG56, Invitrogen #17-0629-42) after 5-6 days of inhibitor culture (FIG. 1, FIG. 3). […]

Take `C=C(C)[C@@H]1CC[C@]2(CO)CC[C@]3(C)[C@H](CC[C@@H]4[C@@]5(C)CC[C@H](O)C(C)(C)[C@@H]5CC[C@]43C)[C@@H]12` [betulin, Betulin]: the tonic signaling result was “increased” and the “measures of antigen-independent CAR-T cell activation” value is on record as “increased most measures”.
The corresponding values for MYCi975 are “increased” and “increased most measures”.

The values above are taken from patent publication US20250345426A1, “METHODS FOR MAKING AND USING THERAPEUTIC CELLS” (THE REGENTS OF THE UNIVERSITY OF CALIFORNIA, priority 2022, published 2025).
